From patent US4920103A, “Modifications of mycinose and 3-O-demethylmycinose in tylosin-type macrolides” (Eli Lilly and Company, priority 1986, dated 1990)
Values after ≈ are worked out from the molar mass of the structure shown. Read-outs that look alike come from different tables or passages of the source.

Key:
[1] = tested on: Pasteurella multocida 17E; assay: MIC, broth-dilution microtiter test, P. multocida 17E; assay type: cell-based; conditions: Pasteurella multocida, 17E
Protocol: (§1) The MIC's in Table II were determined by standard agar-dilution assays. The MIC's in Table III were obtained using conventional broth-dilution microtiter tests.

[2] = tested on: Pasteurella multocida 68C; assay: MIC, broth-dilution microtiter test, P. multocida 68C; assay type: cell-based
Protocol: as §1

[3] = tested on: Pasteurella multocida 60A; assay: MIC, broth-dilution microtiter test, P. multocida 60A; assay type: cell-based
Protocol: as §1

[4] = tested on: Staphylococcus aureus X400; assay: MIC, standard agar-dilution assay, S. aureus X400; assay type: cell-based
Protocol: as §1

[5] = tested on: Staphylococcus epidermidis EPI1; assay: MIC, standard agar-dilution assay, S. epidermidis EPI1; assay type: cell-based
Protocol: as §1

[6] = tested on: Haemophilus influenzae 76; assay: MIC, standard agar-dilution assay, H. influenzae 76; assay type: cell-based
Protocol: as §1

[7] = tested on: Staphylococcus aureus X1.1; assay: MIC, standard agar-dilution assay, S. aureus X1.1; assay type: cell-based
Protocol: as §1

[8] = tested on: Mycoplasma synoviae 40A; assay: MIC, broth-dilution microtiter test, M. synoviae 40A; assay type: cell-based; conditions: Mycoplasmopsis synoviae, 40A
Protocol: as §1

[9] = tested on: Pasteurella hemolytica 22C; assay: MIC, broth-dilution microtiter test, P. hemolytica 22C; assay type: cell-based
Protocol: as §1

[10] = tested on: Staphylococcus aureus; assay: MIC, broth-dilution microtiter test, S. aureus; assay type: cell-based
Protocol: as §1

[11] = tested on: Klebsiella pneumoniae X68; assay: MIC, standard agar-dilution assay, K. pneumoniae X68; assay type: cell-based
Protocol: as §1

[12] = tested on: Bordetella bronchiseptica; assay: MIC, broth-dilution microtiter test, B. bronchiseptica; assay type: cell-based
Protocol: as §1

[13] = tested on: Streptococcus pyogenes C203; assay: Protection of mice experimentally infected with Streptococcus pyogenes C203; assay type: in vivo; conditions: Streptococcus pyogenes, doses given 1 and 4 hours postinfection, read-out: ED50
Protocol: The formula 1 compounds have shown in vivo antimicrobial activity against experimentally-induced infections in laboratory animals. When two doses of test compound were administered to mice experimentally infected with Streptococcus pyogenes C203, the activity observed was measured as an ED50 value [effective dose in mg/kg to protect 50% of the test animals: see Warren Wick, et al., J. Bacteriol. 81, 233-235 (1961)].
^a mg/kg × 2; doses given 1 and 4 hours postinfection

[14] = tested on: Mycoplasma gallisepticum 15E; assay: MIC, broth-dilution microtiter test, M. gallisepticum 15E; assay type: cell-based; conditions: Mycoplasmoides gallisepticum
Protocol: as §1

[15] = tested on: Staphylococcus aureus S13E; assay: MIC, standard agar-dilution assay, S. aureus S13E; assay type: cell-based
Protocol: as §1

[16] = tested on: Streptococcus pyogenes C203; assay: MIC, standard agar-dilution assay, S. pyogenes C203; assay type: cell-based; conditions: Streptococcus pyogenes, C203
Protocol: as §1

[17] = tested on: Pasteurella multocida 40G; assay: MIC, broth-dilution microtiter test, P. multocida 40G; assay type: cell-based
Protocol: as §1

[18] = tested on: Haemophilus influenzae C.L.; assay: MIC, standard agar-dilution assay, H. influenzae C.L.; assay type: cell-based
Protocol: as §1

[19] = tested on: Pasteurella multocida 22A; assay: MIC, broth-dilution microtiter test, P. multocida 22A; assay type: cell-based
Protocol: as §1

[20] = tested on: Pseudomonas aeruginosa X239; assay: MIC, standard agar-dilution assay, P. aeruginosa X239; assay type: cell-based
Protocol: as §1

[21] = tested on: Pasteurella hemolytica 23C; assay: MIC, broth-dilution microtiter test, P. hemolytica 23C; assay type: cell-based
Protocol: as §1

[22] = tested on: Mycoplasma hyorhinis 29E; assay: MIC, broth-dilution microtiter test, M. hyorhinis 29E; assay type: cell-based; conditions: Mycoplasma, 29E
Protocol: as §1

[23] = tested on: Mycoplasma hyopneumoniae S5972; assay: MIC, broth-dilution microtiter test, M. hyopneumoniae S5972; assay type: cell-based; conditions: Mesomycoplasma hyopneumoniae, S5972
Protocol: as §1

[24] = tested on: Staphylococcus aureus V41; assay: MIC, standard agar-dilution assay, S. aureus V41; assay type: cell-based; conditions: Staphylococcus aureus, V41
Protocol: as §1

[25] = tested on: Streptococcus sp. 19F; assay: MIC, broth-dilution microtiter test, Streptococcus sp. 19F; assay type: cell-based; conditions: Streptococcus, SP.19F
Protocol: as §1

[26] = tested on: Staphylococcus epidermidis 222; assay: MIC, standard agar-dilution assay, S. epidermidis 222; assay type: cell-based; conditions: agar-dilution, read-out: MIC
Protocol: as §1

[27] = tested on: Streptococcus Group D 2041; assay: MIC, standard agar-dilution assay, Streptococcus Group D 2041; assay type: cell-based; conditions: GROUPD2041
Protocol: as §1

[28] = tested on: Streptococcus Group D X66; assay: MIC, standard agar-dilution assay, Streptococcus Group D X66; assay type: cell-based
Protocol: as §1

[29] = tested on: Mycoplasma gallisepticum 29C; assay: MIC, broth-dilution microtiter test, M. gallisepticum 29C; assay type: cell-based; conditions: Mycoplasmoides gallisepticum
Protocol: as §1

[30] = tested on: Mycoplasma gallisepticum 36H; assay: MIC, broth-dilution microtiter test, M. gallisepticum 36H; assay type: cell-based; conditions: Mycoplasmoides gallisepticum
Protocol: as §1

[31] = tested on: Pasteurella hemolytica 41D; assay: MIC, broth-dilution microtiter test, P. hemolytica 41D; assay type: cell-based
Protocol: as §1

[32] = tested on: Streptococcus pneumoniae Park I; assay: MIC, standard agar-dilution assay, S. pneumoniae Park I; assay type: cell-based; conditions: Streptococcus pneumoniae
Protocol: as §1

[33] = tested on: Escherichia coli EC14; assay: MIC, standard agar-dilution assay, E. coli EC14; assay type: cell-based
Protocol: as §1

CCC1OC(=O)CC(O)C(C)C(OC2OC(C)C(O)C(N(C)C)C2O)C(CCOc2ccccc2)CC(C)C(=O)C=CC(C)=CC1COC1OC(C)CC(OC)C1OC (stereo not shown) [Compound 11, 4"-Deoxy-20-DH-20-O-phenyl-desmycosin]
MIC [1]: 25 µg/mL (≈ 30 µM)
MIC [2]: 12.5 µg/mL (≈ 15 µM)
MIC [3]: 25 µg/mL (≈ 30 µM)
MIC [4]: 0.25 µg/mL (≈ 0.3 µM)
MIC [5]: 0.25 µg/mL (≈ 0.3 µM)
MIC [6]: 32 µg/mL (≈ 38.4 µM)
MIC [7]: 0.25 µg/mL (≈ 0.3 µM)
MIC [8]: 1.56 µg/mL (≈ 1.87 µM)
MIC [9]: 25 µg/mL (≈ 30 µM)
MIC [10]: 0.78 µg/mL (≈ 0.935 µM)
MIC [11]: > 128 µg/mL
MIC [12]: > 50 µg/mL
ED50 ([13]; C203, oral): 34 mg/kg
ED50 ([13]; C203, sc, subcutaneous): 10 mg/kg
MIC [14]: 12.5 µg/mL (≈ 15 µM)
MIC [15]: 0.25 µg/mL (≈ 0.3 µM)
MIC [16]: 0.25 µg/mL (≈ 0.3 µM)
MIC [17]: 25 µg/mL (≈ 30 µM)
MIC [18]: 32 µg/mL (≈ 38.4 µM)
MIC [19]: 25 µg/mL (≈ 30 µM)
MIC [20]: > 128 µg/mL
MIC [21]: 25 µg/mL (≈ 30 µM)
MIC [22]: 25 µg/mL (≈ 30 µM)
MIC [23]: > 25 µg/mL
MIC [24]: 0.25 µg/mL (≈ 0.3 µM)
MIC [25]: 12.5 µg/mL (≈ 15 µM)
MIC [26]: 0.125 µg/mL (≈ 0.15 µM)
MIC [27]: 4 µg/mL (≈ 4.8 µM)
MIC [28]: 2 µg/mL (≈ 2.4 µM)
MIC [29]: 0.39 µg/mL (≈ 0.468 µM)
MIC [30]: 25 µg/mL (≈ 30 µM)
MIC [31]: 25 µg/mL (≈ 30 µM)
MIC [32]: 0.25 µg/mL (≈ 0.3 µM)
MIC [33]: > 128 µg/mL
